Measurements from patent publication US6703371B1, “Preparations for reducing oxygen consumption during physical efforts” (priority 1999, dated 2004).

Columns and labels:
[1] = system: test subject; assay: Bicycle ergometer test at 100 W: antagonism between inactive (1st dosage) and active (2nd dosage) substances (Example 1b); type: in vivo, human
Procedure: 13 to Mar. 6, 1999, with a subject in good physical condition under standard conditions. The subject was required each morning in the fasting state to perform successively (without interruption) at mechanical power output of 100 W, 125 W and 150 W, each lasting 10 minutes (total test duration 30 minutes each time). […] The heat production induced by mechanical exertion was calculated from the changes in the heart rate. An alternative possibility is also to determine it on the basis of the increase in humidity caused by the perspiration (the tests are carried out in a closed room) or reduction in weight (1 g of water=2.26 kJ). […] The values indicated in table la for the “average heart rate” are in each case averages over the 30-minute duration of the test; relative values for the oxygen consumption were established on the basis of the heart rates in a known manner, and the relative values indicated in Table 1a are based on the oxygen consumption on the first day (=100%); the values listed in the column “heat production” in Table 1a give the percentage deviation of the heat production, established on the basis of the perspiration, from the average from all the tests.
It is known that the oxygen uptake can be determined by measuring the heart rate as a function of the mechanical exertion. This ergometric method is based on establishing the oxygen transport volume through the action of the heart. Since the stroke volume is essentially constant irrespective of the intensity of the mechanical work, and the increased oxygen demand caused by the increase in work results in an increase in the heart rate, the quantity of the transported oxygen can be established by determining the additional heartbeats caused by the work. A 3-stage ergometer as recommended by the World Health Organization (WHO) is used in physiology research institutes and fitness clubs around the world.

[2] = system: test subject; assay: Bicycle ergometer test at 100 W with gelatin products (Example 7); type: in vivo, human
Procedure: In tests analogous to Example 1, the tests indicated in Table 7 were carried out with gelatin products which were produced in analogy to Examples 3-5. After a warm-up period of 5 minutes in each case firstly the heartbeats were recorded at a mechanical power output of 100 W during a 10-minute control test, then the 1st dosage was administered and immediately thereafter the heart rate was measured in a 10-minute test period with a power output of 100 W. In the case of a 2nd dosage, this further administration and a second 10-minute test period take place with a power output of 100 W immediately following the first test period.

[3] = Oxygen-sparing action during physical work, general findings in the description; type: in vivo; conditions: result in words; even occasionally increased

In the case of CN(C)CCCN1c2ccccc2CCc2ccccc21 [imipramine], the “Average heart rate after 1st dosage” value ([1]; 1st dosage 10 mg in 20 ml of water, 10-minute test at 100 W) is reported as 109.5 per minute, the change in vivo at 10 mg ([1]; Homo sapiens, 1st dosage 10 mg, 100 W, read-out: Change in the oxygen consumption after 1st dosage) is reported as 23% and the “Average heart rate after 1st dos.” value ([2]; 1st dosage 10 mg, 100 W) is reported as 100.2 per minute. The “Average heart rate before” value ([2]; 10-minute control test at 100 W before the 1st dosage) was 87.7 per minute and the “Oxygen demand after administration” value [3] was “not reduced”.
